≈ marks a conversion by molar mass, not a printed value.
Tests used:
[1] = system: MRSA (Staphylococcus aureus) BK12060; assay: MIC, MRSA BK12060; conditions: MRSA BK12060; Gram +; 24 hours of incubation
[2] = system: Streptococcus sp., BK12235; assay: MIC, Streptococcus sp., BK12235; conditions: Streptococcus sp., BK12235; Gram +; grown on Tryptic Soy agar medium; 24 hours
M. tuberculosis H37Rv = assay: MIC, M. tuberculosis H37Rv; type: cell-based
Description: (§1) Next, several of the bifunctional ITC compounds were tested for their ability to inhibit the growth of some clinical isolates of Mycobacteria, the results of which are summarized in Table 3 below.

[3] = system: MRSA (Staphylococcus aureus) BK12064; assay: MIC, MRSA BK12064; conditions: MRSA BK12064; Gram +; 24 hours of incubation
[4] = system: Acinetobacter sp., BK12787; assay: MIC, Acinetobacter sp., BK12787; conditions: Acinetobacter sp., BK12787; Gram −; 24 hours of incubation
[5] = system: Serattia marcescens BK12426; assay: MIC, Serattia marcescens BK12426; conditions: Serattia marcescens BK12426; Gram −; 24 hours of incubation
[6] = system: Streptococcus sp., BK12233; assay: MIC, Streptococcus sp., BK12233; conditions: Streptococcus sp., BK12233; Gram +; grown on Tryptic Soy agar medium; 24 hours
[7] = system: Klebsiella pneumonii BK12260; assay: MIC, Klebsiella pneumonii BK12260; conditions: Klebsiella pneumonii BK12260; Gram −; 24 hours of incubation
[8] = system: Enterococcus sp., BK11936; assay: MIC, Enterococcus sp., BK11936; conditions: Enterococcus sp., BK11936; Gram +; 24 hours of incubation
M. fortuitum = assay: MIC, M. fortuitum; type: cell-based; conditions: M. fortuitum
Bacillus cereus 4342 = assay: MIC, Bacillus cereus 4342; conditions: Bacillus cereus 4342; Gram +; 24 hours of incubation
[9] = system: Pseudomonas aeruginosa BK12347; assay: MIC, Pseudomonas aeruginosa BK12347; conditions: Pseudomonas aeruginosa BK12347; Gram −; 24 hours of incubation
[10] = system: Enterococcus sp., BK11940; assay: MIC, Enterococcus sp., BK11940; conditions: Enterococcus sp., BK11940; Gram +; 24 hours of incubation
Escherichia coli BK12336 = assay: MIC, Escherichia coli BK12336; conditions: Escherichia coli BK12336; Gram −; 24 hours of incubation
[11] = system: Staphylococcus epidermidis BK12798; assay: MIC, Staphylococcus epidermidis BK12798; conditions: Staphylococcus epidermidis BK12798; Gram +; 24 hours of incubation
M. intracellularie = assay: MIC, M. intracellularie; type: cell-based; conditions: M. intracellularie
Escherichia coli K12 = assay: MIC, Escherichia coli K12; conditions: Escherichia coli K12; Gram −; 24 hours of incubation
[12] = system: Pseudomonas aeruginosa BK12348; assay: MIC, Pseudomonas aeruginosa BK12348; conditions: Pseudomonas aeruginosa BK12348; Gram −; 24 hours of incubation
[13] = system: Acinetobacter sp., BK12786; assay: MIC, Acinetobacter sp., BK12786; conditions: Acinetobacter sp., BK12786; Gram −; 24 hours of incubation
[14] = system: Serattia marcescens BK12421; assay: MIC, Serattia marcescens BK12421; conditions: Serattia marcescens BK12421; Gram −; 24 hours of incubation
[15] = system: clinical isolates of bacteria and fungus (including yeasts); assay: General antimicrobial activity, semi-quantitative score on collection of clinical isolates; type: cell-based; conditions: semi-quantitative score from number of sensitive bacterial strains at 100 and 200 μM; deduced from number of sensitive bacterial species and average MIC; note: key: −: indicating no activity; +++++: indicating highest activity
Description: The growth inhibitory effect of a number of various ITC compounds were tested on large collection of clinical isolates of bacteria and fungus (including yeasts), in order to establish a systematic structure-activity relationship for the ITC compounds. […] To assess the average activity for an individual ITC compound, the semi-quantitative score was calculated for each compound based on the number of sensitive bacterial strains at concentrations of 100 and 200 μM.

M. cansassi = assay: MIC, M. cansassi; type: cell-based; conditions: M. cansassi
Shigella sp., BK 12441 = assay: MIC, Shigella sp., BK 12441; type: cell-based; conditions: Gram −, 24 hours of incubation
M. scrofulaceum = assay: MIC, M. scrofulaceum; type: cell-based; conditions: M. scrofulaceum
M. tuberculosis W = assay: MIC, M. tuberculosis W; type: cell-based
Description: as §1

[16] = system: Enterobacter cloacii BK12313; assay: MIC, Enterobacter cloacii BK12313; conditions: Enterobacter cloacii BK12313; Gram −; 24 hours of incubation
M. tuberculosis P = assay: MIC, M. tuberculosis P; type: cell-based
Description: as §1

M. avium = assay: MIC, M. avium; type: cell-based; conditions: M. avium
M. bovis BCG = assay: microbe, parasite or virus in culture; type: cell-based
[17] = system: Klebsiella pneumonii BK12261; assay: MIC, Klebsiella pneumonii BK12261; conditions: Klebsiella pneumonii BK12261; Gram −; 24 hours of incubation
Shigella sp., BK 12440 = assay: MIC, Shigella sp., BK 12440; type: cell-based; conditions: Gram −, 24 hours of incubation
M. tuberculosis CDC1551 = assay: MIC, M. tuberculosis CDC1551; type: cell-based
Description: as §1

[18] = system: Bacillus subtilis BK11590; assay: MIC, Bacillus subtilis BK11590; type: cell-based; conditions: Gram +, 24 hours of incubation
M. tuberculosis W4 = assay: MIC, M. tuberculosis W4; type: cell-based
Description: as §1

M. tuberculosis 210 = assay: MIC, M. tuberculosis 210; type: cell-based
Description: as §1

M. tuberculosis AB = assay: MIC, M. tuberculosis AB; type: cell-based
Description: as §1

[19] = system: Staphylococcus epidermidis BK12799; assay: MIC, Staphylococcus epidermidis BK12799; conditions: Staphylococcus epidermidis BK12799; Gram +; 24 hours of incubation

## S=C=NCCCCCCCCN=C=S [Compound 42, S═C═N—(CH2)8—N═C═S]
[1]
  MIC: 2 to 4 µg/mL
[2]
  MIC: 2 µg/mL (≈ 8.76 µM)
M. tuberculosis H37Rv
  MIC: 4 µg/mL (≈ 17.5 µM)
[3]
  MIC: 4 µg/mL (≈ 17.5 µM)
[4]
  MIC: >64 µg/mL
[5]
  MIC: 64 µg/mL (≈ 280 µM)
[6]
  MIC: 1 to 2 µg/mL
[7]
  MIC: >64 µg/mL
[8]
  MIC: 8 µg/mL (≈ 35 µM)
M. fortuitum
  MIC: 32 µg/mL (≈ 140 µM)
Bacillus cereus 4342
  MIC: 2 µg/mL (≈ 8.76 µM)
[9]
  MIC: >64 µg/mL
[10]
  MIC: 8 µg/mL (≈ 35 µM)
Escherichia coli BK12336
  MIC: >64 µg/mL
[11]
  MIC: 2 µg/mL (≈ 8.76 µM)
M. intracellularie
  MIC: 32 µg/mL (≈ 140 µM)
Escherichia coli K12
  MIC: >64 µg/mL
[12]
  MIC: >64 µg/mL
[13]
  MIC: >64 µg/mL
[14]
  MIC: 64 µg/mL (≈ 280 µM)
[15]
  General antimicrobial activity: +++++
M. cansassi
  MIC: 4 µg/mL (≈ 17.5 µM)
Shigella sp., BK 12441
  MIC: >64 µg/mL
M. scrofulaceum
  MIC: 32 µg/mL (≈ 140 µM)
M. tuberculosis W
  MIC: 4 µg/mL (≈ 17.5 µM)
[16]
  MIC: 64 µg/mL (≈ 280 µM)
M. tuberculosis P
  MIC: 4 µg/mL (≈ 17.5 µM)
M. avium
  MIC: 32 µg/mL (≈ 140 µM)
M. bovis BCG
  MIC: 4 µg/mL (≈ 17.5 µM)
[17]
  MIC: >64 µg/mL
Shigella sp., BK 12440
  MIC: >64 µg/mL
M. tuberculosis CDC1551
  MIC: 8 µg/mL (≈ 35 µM)
[18]
  MIC: 2 µg/mL (≈ 8.76 µM)
M. tuberculosis W4
  MIC: 4 µg/mL (≈ 17.5 µM)
M. tuberculosis 210
  MIC: 4 µg/mL (≈ 17.5 µM)
M. tuberculosis AB
  MIC: 4 µg/mL (≈ 17.5 µM)
[19]
  MIC: 2 µg/mL (≈ 8.76 µM)

Reference: patent US9586907B2, “Isothiocyanate compounds, pharmaceutical compositions, and uses thereof” (priority 2006, dated 2017)
